{
  "source": "ChEMBL document CHEMBL1201862",
  "about": "“PubChem BioAssay data set” (2004)",
  "key": {"[1]": {"assay": "cytotoxicity in HMLE control line with eGFP shRNA, dose response, counter-screen for HMLE_sh_ECad selective toxicity project, cell-based, HMLE_sh_eGFP, luminescence (AID 463074);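 note: HMLE human mammary epithelial cells expressing control shRNA against eGFP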", "type": "functional, Homo sapiens"}, "[2]": {"assay": "Luminescence Cell-Based Dose Retest to Confirm Inhibitors of Cancer Stem Cells. [Related pubchem assays (depositor defined):AID2717, AID2721]", "type": "functional", "conditions": "Homo sapiens"}, "Cytochrome P450 3A4 [3]": {"molecular_target": "T1, Cytochrome P450 3A4 (Homo sapiens, UniProt P08684)", "T1 sequence (P08684 whole entry)": "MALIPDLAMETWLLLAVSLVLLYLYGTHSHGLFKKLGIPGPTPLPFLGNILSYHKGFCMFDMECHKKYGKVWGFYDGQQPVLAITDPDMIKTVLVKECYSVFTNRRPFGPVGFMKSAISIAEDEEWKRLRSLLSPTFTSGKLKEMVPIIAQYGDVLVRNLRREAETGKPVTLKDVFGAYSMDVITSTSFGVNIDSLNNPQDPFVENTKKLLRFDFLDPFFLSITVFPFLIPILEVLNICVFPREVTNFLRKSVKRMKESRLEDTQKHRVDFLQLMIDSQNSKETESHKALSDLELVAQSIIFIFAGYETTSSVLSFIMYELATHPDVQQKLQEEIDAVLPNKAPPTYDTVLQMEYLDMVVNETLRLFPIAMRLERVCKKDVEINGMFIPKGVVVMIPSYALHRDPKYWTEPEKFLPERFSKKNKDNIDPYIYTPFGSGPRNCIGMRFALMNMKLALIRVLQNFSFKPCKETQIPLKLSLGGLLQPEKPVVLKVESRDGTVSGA"}, "Cytochrome P450 2D6": {"molecular_target": "Cytochrome P450 2D6 (Homo sapiens, UniProt P10635)"}, "[4]": {"molecular_target": "Peroxisome proliferator-activated receptor gamma/Nuclear receptor coactivator 3 (Homo sapiens, UniProt P37231)", "sequence (P37231 whole entry)": "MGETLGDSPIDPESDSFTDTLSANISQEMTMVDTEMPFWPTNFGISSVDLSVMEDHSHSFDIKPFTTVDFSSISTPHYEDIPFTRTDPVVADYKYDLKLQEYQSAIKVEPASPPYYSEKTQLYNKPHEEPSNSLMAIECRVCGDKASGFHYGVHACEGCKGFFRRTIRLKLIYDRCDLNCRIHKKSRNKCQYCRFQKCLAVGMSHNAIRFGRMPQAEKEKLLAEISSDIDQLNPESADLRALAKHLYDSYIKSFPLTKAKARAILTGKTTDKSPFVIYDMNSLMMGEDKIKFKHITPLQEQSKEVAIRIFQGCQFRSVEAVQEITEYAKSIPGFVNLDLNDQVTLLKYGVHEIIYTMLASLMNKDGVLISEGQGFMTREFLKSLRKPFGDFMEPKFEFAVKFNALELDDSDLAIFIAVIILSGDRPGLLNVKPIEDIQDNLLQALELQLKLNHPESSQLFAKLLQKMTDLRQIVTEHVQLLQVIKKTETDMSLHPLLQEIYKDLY", "sequence (Q9Y6Q9 whole entry, further chain)": "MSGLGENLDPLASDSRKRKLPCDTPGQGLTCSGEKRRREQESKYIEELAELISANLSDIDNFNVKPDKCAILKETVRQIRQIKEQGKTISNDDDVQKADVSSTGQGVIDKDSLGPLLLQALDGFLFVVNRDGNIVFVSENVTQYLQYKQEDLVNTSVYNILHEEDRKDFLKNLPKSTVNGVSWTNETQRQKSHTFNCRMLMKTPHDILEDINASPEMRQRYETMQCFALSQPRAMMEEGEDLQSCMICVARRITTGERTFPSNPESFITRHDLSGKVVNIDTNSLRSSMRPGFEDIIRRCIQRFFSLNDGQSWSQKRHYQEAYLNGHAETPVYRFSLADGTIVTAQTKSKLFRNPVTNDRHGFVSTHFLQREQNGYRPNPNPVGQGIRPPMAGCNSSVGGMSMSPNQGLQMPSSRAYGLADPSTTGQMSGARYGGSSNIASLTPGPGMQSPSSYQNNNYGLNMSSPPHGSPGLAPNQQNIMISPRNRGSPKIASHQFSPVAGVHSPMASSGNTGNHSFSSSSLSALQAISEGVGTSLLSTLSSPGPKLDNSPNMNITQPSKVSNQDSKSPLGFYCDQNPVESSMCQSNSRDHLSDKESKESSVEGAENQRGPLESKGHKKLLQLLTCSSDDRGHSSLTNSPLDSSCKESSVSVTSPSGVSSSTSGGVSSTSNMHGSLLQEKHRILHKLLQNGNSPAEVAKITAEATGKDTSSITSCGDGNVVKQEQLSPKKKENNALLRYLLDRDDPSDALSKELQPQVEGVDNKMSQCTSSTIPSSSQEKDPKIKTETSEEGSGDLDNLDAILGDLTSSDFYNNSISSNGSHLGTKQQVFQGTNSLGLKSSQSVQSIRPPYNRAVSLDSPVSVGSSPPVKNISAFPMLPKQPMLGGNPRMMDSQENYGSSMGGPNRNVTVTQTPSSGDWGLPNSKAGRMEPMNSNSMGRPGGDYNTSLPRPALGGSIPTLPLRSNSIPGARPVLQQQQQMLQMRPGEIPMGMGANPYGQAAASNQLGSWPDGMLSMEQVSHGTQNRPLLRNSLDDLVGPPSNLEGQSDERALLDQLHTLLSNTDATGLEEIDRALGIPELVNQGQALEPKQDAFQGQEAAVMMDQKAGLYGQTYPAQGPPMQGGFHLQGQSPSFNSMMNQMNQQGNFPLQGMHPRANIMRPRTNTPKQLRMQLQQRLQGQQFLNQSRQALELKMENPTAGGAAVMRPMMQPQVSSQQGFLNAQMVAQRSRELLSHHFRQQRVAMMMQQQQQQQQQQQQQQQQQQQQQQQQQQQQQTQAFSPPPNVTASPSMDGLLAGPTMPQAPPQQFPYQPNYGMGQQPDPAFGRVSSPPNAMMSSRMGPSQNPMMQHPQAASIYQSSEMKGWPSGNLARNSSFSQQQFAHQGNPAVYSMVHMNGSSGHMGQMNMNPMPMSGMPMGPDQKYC", "assay": "TR-FRET dose response biochemical High Throughput Screening assay for agonists of the steroid receptor coactivator 3 (SRC-3) recruitment by the peroxisome proliferator-activated receptor gamma (PPAR gamma): non-selective agonists. [Related pubchem assays: 1301 (Confirmation screen.), 1048 (Primary screen.)]", "type": "functional"}, "[5]": {"molecular_target": "T2, Ubiquitin-conjugating enzyme E2 N (Homo sapiens, UniProt P61088)", "T2 sequence (P61088 whole entry)": "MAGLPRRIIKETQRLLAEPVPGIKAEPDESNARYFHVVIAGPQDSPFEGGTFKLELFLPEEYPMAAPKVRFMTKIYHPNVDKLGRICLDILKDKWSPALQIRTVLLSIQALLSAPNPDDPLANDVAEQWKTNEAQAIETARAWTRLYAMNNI", "type": "functional"}, "[6]": {"molecular_target": "T2, Ubiquitin-conjugating enzyme E2 N", "type": "functional", "remark": "listed apart in the source"}, "[7]": {"molecular_target": "Peroxisome proliferator-activated receptor gamma/Nuclear receptor coactivator 2 (Homo sapiens, UniProt P37231)", "sequence (P37231 whole entry)": "as the sequence (P37231 whole entry) above", "sequence (Q15596 whole entry, further chain)": "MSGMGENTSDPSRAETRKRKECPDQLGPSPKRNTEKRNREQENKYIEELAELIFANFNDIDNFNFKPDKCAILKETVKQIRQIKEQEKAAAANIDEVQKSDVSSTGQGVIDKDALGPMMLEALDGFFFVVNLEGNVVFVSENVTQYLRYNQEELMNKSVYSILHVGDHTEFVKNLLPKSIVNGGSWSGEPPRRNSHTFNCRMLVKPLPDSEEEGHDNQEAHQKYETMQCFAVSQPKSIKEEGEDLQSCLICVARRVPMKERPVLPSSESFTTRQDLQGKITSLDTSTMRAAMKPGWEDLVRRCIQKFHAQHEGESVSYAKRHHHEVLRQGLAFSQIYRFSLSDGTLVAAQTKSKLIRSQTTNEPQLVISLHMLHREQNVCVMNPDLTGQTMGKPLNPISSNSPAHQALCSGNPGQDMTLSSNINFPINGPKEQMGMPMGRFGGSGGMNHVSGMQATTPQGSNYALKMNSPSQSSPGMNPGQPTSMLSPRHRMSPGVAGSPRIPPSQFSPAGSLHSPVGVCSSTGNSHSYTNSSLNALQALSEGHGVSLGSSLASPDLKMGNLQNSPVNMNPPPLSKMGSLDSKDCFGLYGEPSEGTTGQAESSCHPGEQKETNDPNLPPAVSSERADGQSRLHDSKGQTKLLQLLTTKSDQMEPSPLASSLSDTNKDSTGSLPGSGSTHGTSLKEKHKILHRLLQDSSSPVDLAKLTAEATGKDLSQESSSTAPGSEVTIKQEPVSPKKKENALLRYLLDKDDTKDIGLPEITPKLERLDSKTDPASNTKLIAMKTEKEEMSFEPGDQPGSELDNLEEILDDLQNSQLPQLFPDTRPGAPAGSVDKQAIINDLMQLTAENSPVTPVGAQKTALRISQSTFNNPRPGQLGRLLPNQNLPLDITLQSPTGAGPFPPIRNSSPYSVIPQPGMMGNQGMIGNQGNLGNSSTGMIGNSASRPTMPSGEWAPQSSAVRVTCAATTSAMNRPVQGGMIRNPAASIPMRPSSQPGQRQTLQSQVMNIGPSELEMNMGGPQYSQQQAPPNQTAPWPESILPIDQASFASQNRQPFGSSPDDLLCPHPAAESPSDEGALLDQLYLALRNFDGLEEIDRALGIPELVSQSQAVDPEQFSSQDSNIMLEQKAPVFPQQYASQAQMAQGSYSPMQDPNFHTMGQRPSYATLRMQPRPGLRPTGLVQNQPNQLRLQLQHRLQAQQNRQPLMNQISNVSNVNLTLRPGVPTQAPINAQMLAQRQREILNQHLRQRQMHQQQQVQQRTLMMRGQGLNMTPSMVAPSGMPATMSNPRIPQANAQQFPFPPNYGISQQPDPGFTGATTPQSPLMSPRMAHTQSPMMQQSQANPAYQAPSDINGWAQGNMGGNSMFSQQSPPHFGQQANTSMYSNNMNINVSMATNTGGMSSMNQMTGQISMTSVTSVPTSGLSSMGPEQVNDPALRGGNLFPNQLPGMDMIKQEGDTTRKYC", "assay": "(§1) TR-FRET dose response biochemical High Throughput Screening assay for agonists of the steroid receptor coactivator 2 (SRC-2) recruitment by the peroxisome proliferator-activated receptor gamma (PPAR gamma): non-selective agonists. [Related pubchem assays: 1297, 1032 ]", "type": "functional"}, "[8]": {"molecular_target": "Peroxisome proliferator-activated receptor gamma/Nuclear receptor coactivator 1 (Homo sapiens, UniProt P37231)", "assay": "as §1, with “1 (SRC-1)” for “2 (SRC-2)”, “assays (depositor defined):AID1300, AID1808, AID504735, AID631]” for “assays: 1297, 1032 ]”", "type": "protein assay"}, "Bcl-2-related protein A1": {"molecular_target": "T3, Bcl-2-related protein A1 (Mus musculus, UniProt Q07440)", "T3 sequence (Q07440 whole entry)": "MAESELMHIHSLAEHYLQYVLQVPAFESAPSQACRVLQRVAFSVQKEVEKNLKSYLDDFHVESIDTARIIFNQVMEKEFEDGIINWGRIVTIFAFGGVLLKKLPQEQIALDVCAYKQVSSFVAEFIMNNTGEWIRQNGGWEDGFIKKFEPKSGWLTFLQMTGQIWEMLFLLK", "type": "functional"}, "Cytochrome P450 3A4 [9]": {"molecular_target": "T1, Cytochrome P450 3A4", "remark": "listed apart in the source"}, "Protein Wnt-3a": {"molecular_target": "Protein Wnt-3a (Mus musculus, UniProt P27467)", "assay": "Wnt3a-driven reporter signaling inhibition, dose response, selectivity assay for Gli-SUFU antagonist project, Wnt-LIGHT cells, luminescence (AID 651570)", "type": "functional", "conditions": "read-out: IC50_Mean"}, "[10]": {"assay": "inhibitors of intracellular T. cruzi replication, confirmation, NIH3T3 host cells, beta-gal luminescence (AID 2044)", "type": "functional, cell-based"}, "[11]": {"molecular_target": "T4, Mannose-6-phosphate isomerase (Homo sapiens, UniProt P34949)", "T4 sequence (P34949 whole entry)": "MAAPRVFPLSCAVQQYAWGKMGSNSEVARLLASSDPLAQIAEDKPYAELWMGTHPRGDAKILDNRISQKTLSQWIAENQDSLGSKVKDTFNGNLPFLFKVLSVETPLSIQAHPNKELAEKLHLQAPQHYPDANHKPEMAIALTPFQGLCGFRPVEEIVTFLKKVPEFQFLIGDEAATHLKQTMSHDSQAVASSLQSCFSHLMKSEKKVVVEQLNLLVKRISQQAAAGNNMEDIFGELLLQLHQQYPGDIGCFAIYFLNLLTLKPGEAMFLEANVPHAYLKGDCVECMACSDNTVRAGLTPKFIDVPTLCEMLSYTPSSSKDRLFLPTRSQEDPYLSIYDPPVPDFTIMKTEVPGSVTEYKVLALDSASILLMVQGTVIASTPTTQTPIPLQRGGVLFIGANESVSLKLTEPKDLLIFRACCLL", "assay": "inhibitors of human PMI, primary screen, biochemical, fluorescence intensity, coupled assay (AID 1209)"}, "[12]": {"assay": "cytotoxicity toward NIH3T3 fibroblasts, dose response, counter-screen, cell-based, ATP luminescence, mouse fibroblasts (AID 2010)", "type": "functional"}, "INS1": {"test_system": "INS1", "assay": "beta cell apoptosis inhibitors, cytokine rescue, dose response, luminescence, retest (AID 449756)", "type": "functional, cell-based", "conditions": "Rattus norvegicus"}, "HeLa": {"test_system": "HeLa", "assay": "HeLa cell cytotoxicity, dose response, cytotoxicity control for MITF activator project, CellTiter-Glo luminescence, cherry-pick samples (AID 540259)", "type": "functional, cell-based", "conditions": "Homo sapiens"}, "Cytochrome P450 2C9": {"molecular_target": "Cytochrome P450 2C9 (Homo sapiens, UniProt P11712)", "sequence (P11712 whole entry)": "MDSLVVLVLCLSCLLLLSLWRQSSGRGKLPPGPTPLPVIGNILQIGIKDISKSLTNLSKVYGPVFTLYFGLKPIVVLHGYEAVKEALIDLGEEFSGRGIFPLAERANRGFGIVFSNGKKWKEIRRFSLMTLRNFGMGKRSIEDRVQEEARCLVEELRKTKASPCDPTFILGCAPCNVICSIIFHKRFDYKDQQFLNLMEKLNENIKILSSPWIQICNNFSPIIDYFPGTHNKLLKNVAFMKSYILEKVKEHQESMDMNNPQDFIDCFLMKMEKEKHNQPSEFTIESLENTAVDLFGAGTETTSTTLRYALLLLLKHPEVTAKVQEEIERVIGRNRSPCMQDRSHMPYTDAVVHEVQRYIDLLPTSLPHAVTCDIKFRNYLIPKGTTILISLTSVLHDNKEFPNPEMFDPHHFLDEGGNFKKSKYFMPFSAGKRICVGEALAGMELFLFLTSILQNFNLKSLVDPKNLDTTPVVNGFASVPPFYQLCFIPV"}, "Escherichia coli": {"test_system": "Escherichia coli", "assay": "microbe, parasite or virus in culture"}, "[13]": {"molecular_target": "T5, Rac GTPase-activating protein 1 (Homo sapiens, UniProt Q9H0H5)", "T5 sequence (Q9H0H5 whole entry)": "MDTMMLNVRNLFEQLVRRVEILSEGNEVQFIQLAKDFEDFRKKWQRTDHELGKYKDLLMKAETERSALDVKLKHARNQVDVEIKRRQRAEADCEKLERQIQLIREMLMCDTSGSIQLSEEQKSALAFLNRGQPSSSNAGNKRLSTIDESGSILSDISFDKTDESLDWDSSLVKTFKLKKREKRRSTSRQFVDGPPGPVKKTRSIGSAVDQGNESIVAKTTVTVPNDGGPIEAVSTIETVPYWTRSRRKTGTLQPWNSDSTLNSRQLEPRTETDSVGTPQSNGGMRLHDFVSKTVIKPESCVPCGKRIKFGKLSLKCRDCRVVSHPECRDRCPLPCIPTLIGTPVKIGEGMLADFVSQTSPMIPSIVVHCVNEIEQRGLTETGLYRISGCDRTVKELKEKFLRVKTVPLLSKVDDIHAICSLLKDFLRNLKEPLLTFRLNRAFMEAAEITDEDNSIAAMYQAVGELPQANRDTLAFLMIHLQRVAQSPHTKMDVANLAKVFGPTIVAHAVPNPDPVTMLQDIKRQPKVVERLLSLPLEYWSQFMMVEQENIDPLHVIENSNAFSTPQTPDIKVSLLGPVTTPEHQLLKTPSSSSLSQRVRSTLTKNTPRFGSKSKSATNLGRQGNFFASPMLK", "assay": "MgcRacGAP GTPase-activating activity inhibitors, confirmation, biochemical, ADP Hunter fluorescence, primary and confirmatory (AID 624330)", "type": "functional"}},
  "note": "Activity calls are given as the source filed them.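 Throughout, for IC50 Mean: Wnt-LIGHT reporter cells stimulated with conditioned medium from Wnt3a-producing cells.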",
  "data": [
    {"smiles": "CCCCCOc1ccc(OC(=O)c2ccncc2)cc1", "values": [
      {"measurement": "AC50", "setting": "[1]", "value": "21.2 µM (active)"},
      {"measurement": "AC50", "setting": "[2]", "value": "7.57 µM (active)"},
      {"measurement": "AC50", "setting": "Cytochrome P450 3A4 [3]", "value": "25.1 µM (inconclusive)"},
      {"measurement": "AC50", "setting": "Cytochrome P450 2D6", "value": "3.98 µM (inconclusive)"}
    ]},
    {"smiles": "CCn1c(=O)cc(SCC(=O)NCCCN2CCN(c3ccc(F)cc3)CC2)c2ccccc21", "values": [
      {"measurement": "EC50", "setting": "[4]", "value": "> 79.4 µM (not active)"},
      {"measurement": "IC50", "setting": "[5]", "value": "4.95 µM (active)"},
      {"measurement": "IC50", "setting": "[6]", "value": "5.57 µM (active)"},
      {"measurement": "EC50", "setting": "[7]", "value": "> 79.4 µM (not active)"},
      {"measurement": "EC50", "setting": "[8]", "value": "> 79.4 µM (inactive)"},
      {"measurement": "IC50", "setting": "Bcl-2-related protein A1", "value": "> 20 µM (inactive)"}
    ]},
    {"smiles": "Cn1cccc1C(=O)N1CCC2(CC1)CCN(c1ncccn1)CC2", "values": [
      {"measurement": "AC50", "setting": "Cytochrome P450 3A4 [9]", "value": "inconclusive"}
    ]},
    {"smiles": "Cn1c(=O)c(-c2ccc(F)cc2)nc2cnc(N3CCOCC3)nc21", "values": [
      {"measurement": "AC50", "setting": "Cytochrome P450 3A4 [9]", "value": "inconclusive"}
    ]},
    {"smiles": "CC[N+]1=C(C)C(C)(C)c2cc(C)ccc21", "values": [
      {"measurement": "IC50", "setting": "Protein Wnt-3a", "value": "0.892 µM (active)"},
      {"measurement": "EC50", "setting": "[10]", "value": "1.49 µM (active)"},
      {"measurement": "AC50", "setting": "[1]", "value": "64.4 µM (active)"},
      {"measurement": "IC50", "setting": "[11]", "value": "> 50 µM (not active)"},
      {"measurement": "AC50", "setting": "[2]", "value": "24 µM (active)"},
      {"measurement": "EC50", "setting": "[12]", "value": "> 60 µM (not active)"},
      {"measurement": "AC50", "setting": "INS1", "value": "5.84 µM (active)"}
    ]},
    {"smiles": "NC(=O)CC(NC(=O)Cc1cccc2ccccc12)c1ccc(NC2CCCCC2)c([N+](=O)[O-])c1", "note": "(configuration not stated)", "values": [
      {"measurement": "AC50", "setting": "[1]", "value": "27.9 µM (active)"},
      {"measurement": "AC50", "setting": "[2]", "value": "5.79 µM (active)"}
    ]},
    {"smiles": "Cc1ccc(C(=O)NCCc2ccc(F)cc2)s1", "values": [
      {"measurement": "AC50", "setting": "HeLa", "value": "43.2 µM (active)"}
    ]},
    {"smiles": "COC(=O)c1cc(C(=O)c2cccc(Cl)c2Cl)cn1C", "values": [
      {"measurement": "AC50", "setting": "Cytochrome P450 2C9", "value": "inconclusive"},
      {"measurement": "AC50", "setting": "Cytochrome P450 3A4 [9]", "value": "inconclusive"}
    ]},
    {"smiles": "C(=N\\Nc1ccccn1)/c1ccc(N2CCOCC2)cc1", "values": [
      {"measurement": "AC50", "setting": "Escherichia coli", "value": "62 µM (active)"},
      {"measurement": "IC50", "setting": "[13]", "value": "134 µM (active)"}
    ]},
    {"smiles": "CCc1ccc(O)c(-c2cc(C(=O)Nc3cccnc3)[nH]n2)c1", "values": [
      {"measurement": "AC50", "setting": "HeLa", "value": "> 350 µM (inactive)"}
    ]}
  ]
}
